Experimental data published in the supplement of paper PMC9663587.

Tests used:
BSJ-03-123 = compound: CC(=O)c1c(C)c2cnc(Nc3ccc(N4CCN(CCOCCOCCOCCNC(=O)COc5cccc6c5C(=O)N(C5CCC(=O)NC5=O)C6=O)CC4)cn3)nc2n(C2CCCC2)c1=O [BSJ-03-123]; experiment: GR value, 72 h; higher = faster growth (1 = untreated, <0 = killing);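 also: breast cancer and non-malignant breast epithelial lines, nine half-log doses, viable cells counted by Hoechst and LIVE/DEAD dye imaging versus time-zero plates and DMSO controls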
Flavopiridol [1] = compound: T1, CN1CC[C@H](c2c(O)cc(O)c3c(=O)cc(-c4ccccc4Cl)oc23)[C@H](O)C1 [Flavopiridol]; experiment: as above
THZ1 = compound: CN(C)C/C=C/C(=O)Nc1ccc(C(=O)Nc2cccc(Nc3ncc(Cl)c(-c4c[nH]c5ccccc45)n3)c2)cc1 [THZ1]; experiment: as above
LEE011/Ribociclib = compound: CN(C)C(=O)c1cc2cnc(Nc3ccc(N4CCNCC4)cn3)nc2n1C1CCCC1 [LEE011/Ribociclib]; experiment: as above
Neratinib/HKI272 = compound: CCOc1cc2ncc(C#N)c(Nc3ccc(OCc4ccccn4)c(Cl)c3)c2cc1NC(=O)/C=C/CN(C)C [Neratinib/HKI272]; experiment: as above
[2] = compound: CC(=O)c1c(C)c2cnc(Nc3ccc(N4CCNCC4)cn3)nc2n(C2CCCC2)c1=O; experiment: as above
[3] = compound: CCc1cnn2c(NCc3ccc[n+]([O-])c3)cc(N3CCCC[C@H]3CCO)nc12; experiment: as above
YKL-5-124 = compound: C=CC(=O)Nc1ccc(C(=O)Nc2[nH]nc3c2CN(C(=O)N[C@H](CN(C)C)c2ccccc2)C3(C)C)cc1 [YKL-5-124]; experiment: as above
THZ531 = compound: CN(C)C/C=C/C(=O)Nc1ccc(C(=O)N2CCC[C@@H](Nc3ncc(Cl)c(-c4c[nH]c5ccccc45)n3)C2)cc1 [THZ531]; experiment: as above
[4] = compound: CCN1CCN(Cc2ccc(Nc3ncc(F)c(-c4cc(F)c5nc(C)n(C(C)C)c5c4)n3)nc2)CC1; experiment: as above
Flavopiridol [5] = compound: T1, Flavopiridol; experiment: increase in dead-cell fraction, 72 h; higher = more death;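 also: breast cancer cell lines in 384-well plates, stained with Hoechst plus LIVE/DEAD far red dye and imaged, cells above an LDR intensity threshold counted dead, Hoechst-negative corpses included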
[6] = compound: CCN1CCN(Cc2ccc(Nc3ncc(F)c(-c4cc(F)c5nc(C)n(C(C)C)c5c4)n3)nc2)CC1; experiment: as above

Cell Line: BT20
- GR value (BSJ-03-123; 0.001 µM): 0.934 GR
- GR value (BSJ-03-123; 0.003162 µM): 0.738 GR
- GR value (BSJ-03-123; 0.01 µM): 0.759 GR
- GR value (BSJ-03-123; 0.03162 µM): 0.7 GR
- GR value (BSJ-03-123; 0.1 µM): 0.664 GR
- GR value (BSJ-03-123; 0.3162 µM): 0.528 GR
- GR value (BSJ-03-123; 1 µM): 0.445 GR
- GR value (BSJ-03-123; 3.162 µM): 0.365 GR
- GR value (BSJ-03-123; 10 µM): 0.0085 GR
- GR value (Flavopiridol [1]; 0.0001 µM): 0.987 GR
- GR value (Flavopiridol [1]; 0.0003162 µM): 0.946 GR
- GR value (Flavopiridol [1]; 0.001 µM): 0.999 GR
- GR value (Flavopiridol [1]; 0.003162 µM): 0.931 GR
- GR value (Flavopiridol [1]; 0.01 µM): 0.993 GR
- GR value (Flavopiridol [1]; 0.03162 µM): 0.835 GR
- GR value (Flavopiridol [1]; 0.1 µM): 0.593 GR
- GR value (Flavopiridol [1]; 0.3162 µM): -0.0024 GR
- GR value (Flavopiridol [1]; 1 µM): -0.639 GR
- GR value (THZ1; 0.0001 µM): 0.946 GR
- GR value (THZ1; 0.0003162 µM): 1.04 GR
- GR value (THZ1; 0.001 µM): 1 GR
- GR value (THZ1; 0.003162 µM): 1.02 GR
- GR value (THZ1; 0.01 µM): 1.03 GR
- GR value (THZ1; 0.03162 µM): 1.01 GR
- GR value (THZ1; 0.1 µM): 1.01 GR
- GR value (THZ1; 0.3162 µM): 0.807 GR
- GR value (THZ1; 1 µM): -0.409 GR
- GR value (LEE011/Ribociclib; 0.001 µM): 0.818 GR
- GR value (LEE011/Ribociclib; 0.003162 µM): 0.759 GR
- GR value (LEE011/Ribociclib; 0.01 µM): 0.624 GR
- GR value (LEE011/Ribociclib; 0.03162 µM): 0.672 GR
- GR value (LEE011/Ribociclib; 0.1 µM): 0.651 GR
- GR value (LEE011/Ribociclib; 0.3162 µM): 0.49 GR
- GR value (LEE011/Ribociclib; 1 µM): 0.463 GR
- GR value (LEE011/Ribociclib; 3.162 µM): 0.384 GR
- GR value (LEE011/Ribociclib; 10 µM): 0.0703 GR
- GR value (Neratinib/HKI272; 0.0003162 µM): 1.04 GR
- GR value (Neratinib/HKI272; 0.001 µM): 1.03 GR
- GR value (Neratinib/HKI272; 0.003162 µM): 1.07 GR
- GR value (Neratinib/HKI272; 0.01 µM): 0.976 GR
- GR value (Neratinib/HKI272; 0.03162 µM): 0.918 GR
- GR value (Neratinib/HKI272; 0.1 µM): 0.86 GR
- GR value (Neratinib/HKI272; 0.3162 µM): 0.693 GR
- GR value (Neratinib/HKI272; 1 µM): 0.607 GR
- GR value (Neratinib/HKI272; 3.162 µM): 0.295 GR
- GR value ([2]; 0.0003162 µM): 1.07 GR
- GR value ([2]; 0.001 µM): 1.09 GR
- GR value ([2]; 0.003162 µM): 0.956 GR
- GR value ([2]; 0.01 µM): 0.809 GR
- GR value ([2]; 0.03162 µM): 0.567 GR
- GR value ([2]; 0.1 µM): 0.36 GR
- GR value ([2]; 0.3162 µM): 0.24 GR
- GR value ([2]; 1 µM): 0.203 GR
- GR value ([2]; 3.162 µM): 0.156 GR
- GR value ([3]; 0.0001 µM): 0.951 GR
- GR value ([3]; 0.0003162 µM): 1.01 GR
- GR value ([3]; 0.001 µM): 0.998 GR
- GR value ([3]; 0.003162 µM): 1.1 GR
- GR value ([3]; 0.01 µM): 0.929 GR
- GR value ([3]; 0.03162 µM): -0.235 GR
- GR value ([3]; 0.1 µM): -0.645 GR
- GR value ([3]; 0.3162 µM): -0.672 GR
- GR value ([3]; 1 µM): -0.698 GR
- GR value (YKL-5-124; 0.001 µM): 0.835 GR
- GR value (YKL-5-124; 0.003162 µM): 0.664 GR
- GR value (YKL-5-124; 0.01 µM): 0.432 GR
- GR value (YKL-5-124; 0.03162 µM): 0.395 GR
- GR value (YKL-5-124; 0.1 µM): 0.219 GR
- GR value (YKL-5-124; 0.3162 µM): 0.229 GR
- GR value (YKL-5-124; 1 µM): 0.13 GR
- GR value (YKL-5-124; 3.162 µM): 0.0428 GR
- GR value (YKL-5-124; 10 µM): -0.116 GR
- GR value (THZ531; 0.0001 µM): 1 GR
- GR value (THZ531; 0.0003162 µM): 0.93 GR
- GR value (THZ531; 0.001 µM): 0.967 GR
- GR value (THZ531; 0.003162 µM): 0.988 GR
- GR value (THZ531; 0.01 µM): 1.09 GR
- GR value (THZ531; 0.03162 µM): 1 GR
- GR value (THZ531; 0.1 µM): 0.927 GR
- GR value (THZ531; 0.3162 µM): 0.907 GR
- GR value (THZ531; 1 µM): 0.647 GR
- GR value ([4]; 0.001 µM): 0.933 GR
- GR value ([4]; 0.003162 µM): 0.9 GR
- GR value ([4]; 0.01 µM): 0.69 GR
- GR value ([4]; 0.03162 µM): 0.489 GR
- GR value ([4]; 0.1 µM): 0.331 GR
- GR value ([4]; 0.3162 µM): 0.264 GR
- GR value ([4]; 1 µM): 0.231 GR
- GR value ([4]; 3.162 µM): 0.163 GR
- GR value ([4]; 10 µM): -0.21 GR
- increase in dead-cell fraction (Flavopiridol [5]; 0.0001 µM): 0.0067
- increase in dead-cell fraction (Flavopiridol [5]; 0.0003162 µM): 0.0031
- increase in dead-cell fraction (Flavopiridol [5]; 0.001 µM): -0.001
- increase in dead-cell fraction (Flavopiridol [5]; 0.003162 µM): -0.0003
- increase in dead-cell fraction (Flavopiridol [5]; 0.01 µM): 0.0003
- increase in dead-cell fraction (Flavopiridol [5]; 0.03162 µM): 0.0115
- increase in dead-cell fraction (Flavopiridol [5]; 0.1 µM): 0.0027
- increase in dead-cell fraction (Flavopiridol [5]; 0.3162 µM): 0.0458
- increase in dead-cell fraction (Flavopiridol [5]; 1 µM): 0.637
- increase in dead-cell fraction ([6]; 0.001 µM): -0.0036
- increase in dead-cell fraction ([6]; 0.003162 µM): -0.0047
- increase in dead-cell fraction ([6]; 0.01 µM): -0.0009
- increase in dead-cell fraction ([6]; 0.03162 µM): -0.0044
- increase in dead-cell fraction ([6]; 0.1 µM): 0.0079
- increase in dead-cell fraction ([6]; 0.3162 µM): 0.0034
- increase in dead-cell fraction ([6]; 1 µM): 0.0076
- increase in dead-cell fraction ([6]; 3.162 µM): 0.0117
- increase in dead-cell fraction ([6]; 10 µM): 0.363
